Results: patent US20100255994A1, “HERBICIDAL MIXTURE” (E.I. DU PONT DE NEMOURS AND COMPANY, priority 2007, published 2010)

System: Digitaria nuda
Experiment: Test A: postemergence greenhouse weed control, visual rating
Format: in vivo
Conditions: 7 DAT
Protocol: Plastic pots (10-cm square) were filled to the rim with a sandy loam soil having pH of 6.1, 1.4% organic matter and a cation exchange capacity (CEC) of 5.7 milliequivalents per 100 grams (meq/100 g). The soil was tamped firm to a uniform level of 2.5 cm below the rim of each pot. A measured amount of seeds of Digitaria nuda were scattered on the soil surface. Seeded pots were covered with approximately 50 mL of the same planting soil and tamped. The pots were then placed in a greenhouse and watered thoroughly 2-3 times daily as needed. A balanced fertilizer solution was injected into the watering system to provide 218 ppm of nitrogen. Artificial lighting was used to supplement natural light to produce a 14 h photoperiod. Greenhouse temperatures were targeted for 28.8° C. in the day and 19.8° C. at night.
When the D. nuda plants reached the 3-4-leaf growth stage (8-12 cm height), the pots were sorted into test units for herbicide application. Treatments were replicated three times. The herbicides were diluted in a measured amount of water and then mixed using a magnetic stir bar for 10 minutes before aliquots were taken to make individual treatment solutions. Diuron was in the form of the DuPont product KARMEX, which is a wettable granule formulation containing 80 weight % active ingredient. Hexazinone was in the form of the DuPont product VELPAR DF, which is a wettable granule formulation containing 75 weight % active ingredient. A mixture of hexazinone and diuron in 11:39 weight ratio was in the form of the DuPont product VELPAR-K (VELPAR-K4) 60 WG, which is a wettable granule formulation containing 13.2 weight % hexazinone and 46.8 weight % diuron active ingredients. A mixture of hexazinone and diuron in 1:8 weight ratio was in the form of the DuPont product VELPAR-K8 (marketed in Brazil as ADVANCE Herbicide), which is a wettable granule formulation containing 6.7 weight % hexazinone and 53.3 weight % diuron active ingredients. Topramezone was in the form of the AMVAC product IMPACT, which is a suspension concentrate formulation containing 29.7% active ingredient. These products were applied alone and in combinations. Application rates of diuron and hexazinone were […] and 210 g ai ha^−1, respectively. The application rates of the VELPAR-K4 mixture of hexazinone and diuron (132 g a.i. hexazinone+468 g a.i. diuron/kg of formulated product) and VELPAR-K8 mixture of hexazinone and diuron (67 g a.i. hexazinone+533 g a.i. diuron kg of formulated product) were 1200 and 1800 g total a.i. ha^−1, respectively. Application rates of topramezone were 6, 12, 18 and 24 g a.i./ha. (“a.i.” means active ingredient.) The pots were then sprayed through a T-Jet 8002E nozzle using a stationary belt sprayer calibrated to deliver 281 L/ha at 276 kPa. Treatments were replicated three times.
The plants were returned to the greenhouse, and then control was visually evaluated relative to the control plants at 7 days after treatment (DAT). A numerical percent rating system was used to describe the response observed from each treatment on a scale of 0 to 100%, in which 0% indicates no response and 100% indicates plant death or near death. The reported results are the mean averages of the three replicates.
Colby's Equation was used to determine the herbicidal effects expected from the mixtures. Colby's Equation (Colby, S. R. “Calculating Synergistic and Antagonistic Responses of Herbicide Combinations,” Weeds, 15(1), pp 20-22 (1967)) calculates the expected additive effect of herbicidal mixtures, and for two active ingredients, or a pair of active ingredients (e.g., diuron+hexazinone) combined with an additional active ingredient (e.g., topramezone), is of the form: […]

SMILES: CN(C)C(=O)Nc1ccc(Cl)c(Cl)c1 [Diuron, N′-(3,4-dichlorophenyl)-N,N-dimethylurea]
- % Control Observed (diuron 1800 g a.i./ha): 20%

SMILES: CN(C)c1nc(=O)n(C2CCCCC2)c(=O)n1C [Hexazinone]
- % Control Observed (hexazinone 210 g a.i./ha): 12%

SMILES: Cc1c(C(=O)c2cnn(C)c2O)ccc(S(C)(=O)=O)c1C1=NOCC1 [Topramezone]
- % Control Observed (topramezone 6 g a.i./ha, 3-4-leaf stage, mean of 3 replicates): 27%
- % Control Observed (topramezone 12 g a.i./ha): 28%
- % Control Observed (topramezone 18 g a.i./ha): 33%
- % Control Observed (topramezone 24 g a.i./ha): 40%
